system: HBsAg secretion, HepG2-Clone42 cells (Tet-inducible HBV-expressing, HBV ayw strain); test: HBsAg assay (HBsAg ELISA, secreted HBV sAg from HepG2-Clone42 cells); assay type: cell-based; settings: Hepatitis B virus, read-out: HBsAg (nM), EC50 = concentration at which HBsAg secretion was reduced 50% compared to DMSO control
Procedure, shortened: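 HepG2-Clone42 cells (Tet-inducible, integrated 1.3-mer HBV ayw) treated 24 h post-seeding with five-fold serial compound dilutions, 0.5% DMSO final. Secreted HBsAg measured by ELISA (A450); EC50 for 50% reduction vs DMSO control after background subtraction, four-parameter logistic fit.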

SMILES | EC50 [nM]
COCCOCCCOc1cccc2c3n(nc12)CC(C(C)(C)C)n1cc(C(=O)O)c(=O)cc1-3 (racemic) [Example 2.21, 6-(tert-butyl)-10-(3-(2-methoxyethoxy)propoxy)-2-oxo-6,7-dihydro-2H-pyrido[2′,1′:3,4]pyrazino[1,2-b]indazole-3-carboxylic Acid] | < 1
CC(C)(C)C1Cn2nc3c(OC4CCNCC4)cccc3c2-c2cc(=O)c(C(=O)O)cn21 (racemic) [Example 2.27, 6-(tert-butyl)-2-oxo-10-(piperidin-4-yloxy)-6,7-dihydro-2H-pyrido[2′,1′:3,4]pyrazino[1,2-b]indazole-3-carboxylic Acid] | > 100
COCC(COc1cccc2c3n(nc12)CC(C(C)(C)C)n1cc(C(=O)O)c(=O)cc1-3)OC (racemic) [Example 2.13, 6-(tert-butyl)-10-(2,3-dimethoxypropoxy)-2-oxo-6,7-dihydro-2H-pyrido[2′,1′:3,4]pyrazino[1,2-b]indazole-3-carboxylic Acid] | 1 to 100
CC(C)(C)C1Cn2nc3c(OC[C@H]4CCC(=O)N4)cccc3c2-c2cc(=O)c(C(=O)O)cn21 (single isomer, unassigned) [Example 2.34-I] | > 100
CC(C)(C)C1Cn2nc3c(OCC4CCOC4)cccc3c2-c2cc(=O)c(C(=O)O)cn21 (racemic) [Example 2.8, 6-(tert-butyl)-2-oxo-10-((tetrahydrofuran-3-yl)methoxy)-6,7-dihydro-2H-pyrido[2′,1′:3,4]pyrazino[1,2-b]indazole-3-carboxylic Acid] | < 1
CC(C)(C)C1Cn2nc3c(OCC(F)F)cccc3c2-c2cc(=O)c(C(=O)O)cn21 (racemic) [Example 2.10, 6-(tert-butyl)-10-(2,2-difluoroethoxy)-2-oxo-6,7-dihydro-2H-pyrido[2′,1′:3,4]pyrazino[1,2-b]indazole-3-carboxylic Acid] | < 1

same assay, conditions: read-out: HBsAg, EC50 = concentration at which HBsAg secretion was reduced 50% compared to DMSO control

SMILES | EC50 [nM]
COCCCOc1cccc2c3n(nc12)CC(C(C)(C)C)n1cc(C(=O)O)c(=O)cc1-3 (single isomer, unassigned) [Example 2.1-II, 6-(tert-butyl)-10-(3-methoxypropoxy)-2-oxo-6,7-dihydro-2H-pyrido[2′,1′:3,4]pyrazino[1,2-b]indazole-3-carboxylic Acid] | 1 to 100
CC(C)(C)C1Cn2nc3c(OC[C@@H]4CCC(=O)N4)cccc3c2-c2cc(=O)c(C(=O)O)cn21 (single isomer, unassigned) [Example 2.33-II] | > 100
CC1(C)CCC2C1n1cc(C(=O)O)c(=O)cc1-c1c3cccc(F)c3nn12 (single isomer, unassigned) [Example 5.2-II, 12-fluoro-3,3-dimethyl-7-oxo-2,3,3a,14a-tetrahydro-1H,7H-cyclopenta[5,6]pyrido[2′,1′:3,4]pyrazino[1,2-b]indazole-6-carboxylic Acid] | > 100
CC(C)Oc1cccc2c3n(nc12)CC(C(C)(C)C)n1cc(C(=O)O)c(=O)cc1-3 (single isomer, unassigned) [Example 2.47-I, 6-(tert-butyl)-10-isopropoxy-2-oxo-6,7-dihydro-2H-pyrido[2′,1′:3,4]pyrazino[1,2-b]indazole-3-carboxylic Acid] | > 100
CC(C)(C)C1Cn2nc3c(OC[C@H]4CCC(=O)N4)cccc3c2-c2cc(=O)c(C(=O)O)cn21 (single isomer, unassigned) [Example 2.34-II] | > 100
CC1(C)CCC2C1n1cc(C(=O)O)c(=O)cc1-c1c3cccc(F)c3nn12 (single isomer, unassigned) [Example 5.2-I, 12-fluoro-3,3-dimethyl-7-oxo-2,3,3a,14a-tetrahydro-1H,7H-cyclopenta[5,6]pyrido[2′,1′:3,4]pyrazino[1,2-b]indazole-6-carboxylic Acid] | 1 to 100
COc1cccc2c3n(nc12)C1COC(C)(C)C1n1cc(C(=O)O)c(=O)cc1-3 (single isomer, unassigned) [Example 10.1-II, 12-methoxy-3,3-dimethyl-7-oxo-1,3,3a,14a-tetrahydro-7H-furo[3′,4′:5,6]pyrido[2′,1′:3,4]pyrazino[1,2-b]indazole-6-carboxylic Acid] | 1 to 100
COc1ccc2nn3c(c2c1)-c1cc(=O)c(C(=O)O)cn1C(C(C)(C)C)C3 (single isomer, unassigned) [Example 1.3-I, 6-(tert-butyl)-12-methoxy-2-oxo-6,7-dihydro-2H-pyrido[2′,1′:3,4]pyrazino[1,2-b]indazole-3-carboxylic acid] | 1 to 100

— US10975078B2, “Fused indazole pyridone compounds as antivirals” (priority 2017, dated 2021)
